The test system of test [1] is tubulin. Particulars: 10 μL added to 100 μL 4 mg/ml tubulin, FIG. 1.
Method: The effect of 3AA-MDC and related metabolites on the tubulin polymerization in vitro was assessed by HTS-Tubulin Polymerization Assay Kit (BK004P, Cytoskeleton, Inc., USA). According to the instruction of kit, pre-warm the 96-well plate to 37° C. for 30 min prior to starting the assay. At the same time, the spectrophotometer (SpectraMax, Molecular Devices, USA) was set as follow: wavelength, 405 nm; temperature, 37° C.; Kinetic, 31 cycles of 1 reading per minute. Make cold G-PEM buffer (990 μL General Tubulin Buffer+10 μL GTP Stock) and keep it on ice. Prepare 4 mg/ml tubulin, 200 nM L-3AA-MDC (N2′-deacetyl-N2′-(6-maleimido-1-oxo-hexyl)maytansine), or related compounds cys-3AA-MDC, or lys-mcc-MDC, 100 μM Paclitaxel, 100 μM Nocodazole, and 1 μM 206-3AA-MDC (3AA-MDC-antibody conjugate). Add 10 μL G-PEM, 3AA-MDC, Paclitaxel, Nocodazole and 206-3AA-MDC or related metabolites into the wells, and then add 100 μL 4 mg/ml tubulin to each well. Immediately place the plate into the spectrophotometer and start recording using the kinetic setup described above.
Test [2] concerns human acute lymphoblastic leukemia line C.E.M. Particulars: Wolpert-DeFillippes et al. 1975; cited from earlier work.

Turning to `CC(=O)O[C@H]1C(=O)[C@@]2(C)[C@H]([C@H](OC(=O)c3ccccc3)[C@]3(O)C[C@H](OC(=O)[C@H](O)[C@@H](NC(=O)c4ccccc4)c4ccccc4)C(C)=C1C3(C)C)[C@]1(OC(C)=O)CO[C@@H]1C[C@@H]2O` [Paclitaxel], the “relative activity of tubulin polymerization enhanced” value in test [1] (100 μM Paclitaxel stock, 37° C., 405 nm) is “about 3 fold”.
`COc1cc2cc(c1Cl)N(C)C(=O)C[C@H](OC(=O)[C@H](C)N(C)C(C)=O)[C@]1(C)O[C@H]1[C@H](C)[C@@H]1C[C@@](O)(NC(=O)O1)[C@H](OC)/C=C/C=C(\C)C2` [Maytansine]: the “concentration that inhibits C.E.M. line (as low as)” value in test [2] is 10^−7 µg/mL.
As to `COC(=O)Nc1nc2ccc(C(=O)c3cccs3)cc2[nH]1` [Nocodazole], the “relative activity of tubulin polymerization decreased” value in test [1] (100 μM Nocodazole stock, 37° C., 405 nm) came to 2.5 fold.
Consider `COc1cc2cc(c1Cl)N(C)C(=O)C[C@H](OC(=O)[C@H](C)N(C)C(=O)CCCCCN1C(=O)C=CC1=O)[C@]1(C)OC1[C@H](C)[C@@H]1C[C@@](O)(NC(=O)O1)[C@H](OC)/C=C/C=C(\C)C2` (stereo partly drawn) [L-3AA-MDC, N2′-deacetyl-N2′-(6-maleimido-1-oxo-hexyl)maytansine], for which the “effect on tubulin polymerization (in words)” value in test [1] (200 nM stock, compared with Nocodazole) was “more significantly inhibited the tubulin polymerization”.

The record behind these values is patent US20140178411A1, “COMPOUNDS AND METHODS FOR THE TREATMENT OF CD20 POSITIVE DISEASES” (BIO-THERA SOLUTIONS, LTD., CO., priority 2012, published 2014).
